Measurements published in PubChem BioAssay AID248 (DTP/NCI, 2004).
Values joined by “and” are separate entries in the source; they are usually repeats but may differ in a detail not shown here. Identical values can stand only once. Toxic doses and inconclusive results are not listed. Rule as the data show it: active = T/C of 150% or more; inactive = T/C below 125%.

Test system: L1210 leukemia ip in BDF1 mice, survival T/C
Assay: NCI In Vivo Anticancer Drug Screen. Data for tumor model L1210 Leukemia (intraperitoneal) in B6D2F1 (BDF1) mice
Conditions: endpoint: mean survival time, higher = longer survival
Outline: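 Ratio derived from survival: compound-dosed mice over vehicle-dosed mice, all bearing a transplantable tumor.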

[1] = dose: 100.0 mg/kg/injection, schedule: Q01DX009 (ip), vehicle: saline with Tween-80
[2] = dose: 25.0 mg/kg/injection, schedule: Q01DX009 (ip), vehicle: saline
[3] = dose: 50.0 mg/kg/injection, schedule: Q01DX009 (ip), vehicle: saline
[4] = dose: 100.0 mg/kg/injection, schedule: Q01DX009 (ip), vehicle: saline
[5] = dose: 100.0 mg/kg/injection, schedule: Q01DX001 (ip), vehicle: saline with Tween-80
[6] = dose: 100.0 mg/kg/injection, schedule: Q04DX002 (ip), vehicle: Klucel (hydroxypropylcellulose) (HPC)
[7] = dose: 200.0 mg/kg/injection, schedule: Q04DX002 (ip), vehicle: Klucel (hydroxypropylcellulose) (HPC)
[8] = dose: 400.0 mg/kg/injection, schedule: Q04DX002 (ip), vehicle: Klucel (hydroxypropylcellulose) (HPC)
[9] = dose: 100.0 mg/kg/injection, schedule: Q01DX009 (ip), vehicle: Klucel (hydroxypropylcellulose) (HPC)
[10] = dose: 200.0 mg/kg/injection, schedule: Q01DX009 (ip), vehicle: Klucel (hydroxypropylcellulose) (HPC)
[11] = dose: 400.0 mg/kg/injection, schedule: Q01DX009 (ip), vehicle: Klucel (hydroxypropylcellulose) (HPC)
[12] = dose: 100.0 mg/kg/injection, schedule: Q04DX002 (ip), vehicle: saline
[13] = dose: 200.0 mg/kg/injection, schedule: Q04DX002 (ip), vehicle: saline
[14] = dose: 100.0 mg/kg/injection, schedule: Q04DX003 (ip), vehicle: saline with Tween-80
[15] = dose: 400.0 mg/kg/injection, schedule: Q04DX002 (ip), vehicle: saline
[16] = dose: 25.0 mg/kg/injection, schedule: Q01DX009 (ip), vehicle: saline with Tween-80
[17] = dose: 50.0 mg/kg/injection, schedule: Q01DX009 (ip), vehicle: saline with Tween-80

Measured: T/C

COC(=O)NC(C)(NC(=O)OC)C(=O)OC
inactive: [1] 104 % of control | dose: 200.0 mg/kg/injection, schedule: Q01DX009 (ip), vehicle: saline with Tween-80 106 % of control | dose: 400.0 mg/kg/injection, schedule: Q01DX009 (ip), vehicle: saline with Tween-80 97 % of control

COC1=CC23CCCN2CCc2cc4c(cc2C3C1OC(C)=O)OCO4 (centres undefined)
inactive: [2] 106 % of control | [3] 106 % of control | [4] 102 % of control

O=C1c2ccccc2C(=O)N1CCCN1C(=O)c2ccccc2C1=O
inactive: [5] 111 % of control | dose: 100.0 mg/kg/injection, schedule: Q04DX002 (ip), vehicle: gum acacia 104 % of control | dose: 200.0 mg/kg/injection, schedule: Q01DX001 (ip), vehicle: saline with Tween-80 102 % of control | dose: 200.0 mg/kg/injection, schedule: Q04DX002 (ip), vehicle: gum acacia 96 % of control | dose: 400.0 mg/kg/injection, schedule: Q01DX001 (ip), vehicle: saline with Tween-80 100 % of control | dose: 400.0 mg/kg/injection, schedule: Q04DX002 (ip), vehicle: gum acacia 93 % of control

O=C(OC(c1ccccc1)c1ccccc1)C(CSC(c1ccccc1)(c1ccccc1)c1ccccc1)NC(c1ccccc1)(c1ccccc1)c1ccccc1 (centres undefined)
inactive: dose: 100.0 mg/kg/injection, schedule: Q04DX003 (ip), vehicle: Klucel (hydroxypropylcellulose) (HPC) 91 % of control | dose: 200.0 mg/kg/injection, schedule: Q04DX003 (ip), vehicle: Klucel (hydroxypropylcellulose) (HPC) 92 % of control

C#CC(CC)(CC)NC(=O)NC(C)(C)C
inactive: [6] 98 % of control | [7] 102 % of control | [8] 86 % of control

CC(=O)Nc1ccccc1C(C#N)Cc1ccccc1 (centres undefined)
inactive: dose: 75.0 mg/kg/injection, schedule: Q01DX001 (ip), vehicle: other 96 % of control | dose: 150.0 mg/kg/injection, schedule: Q01DX001 (ip), vehicle: other 101 % of control | dose: 300.0 mg/kg/injection, schedule: Q01DX001 (ip), vehicle: other 101 % of control

O=[N+]([O-])c1ccc(N/N=C2\CCCCCC2c2ccccc2)c([N+](=O)[O-])c1 (centres undefined)
inactive: [6] 100 % of control | [7] 96 % of control | [8] 100 % of control

CCCCOCCN
inactive: dose: 12.5 mg/kg/injection, schedule: Q01DX009 (ip), vehicle: saline 104 % of control | [2] 101 % of control | [3] 106 % of control

CC(=O)[C@H]1CC[C@H]2[C@@H]3CCC4=CC(=O)CC[C@]4(C)[C@H]3CC[C@]12C
inactive: dose: 125.0 mg/kg/injection, schedule: Q01DX Z (sc), vehicle: steriod suspending solution 97 % of control | dose: 250.0 mg/kg/injection, schedule: Q01DX Z (sc), vehicle: steriod suspending solution 91 % of control | dose: 500.0 mg/kg/injection, schedule: Q01DX Z (sc), vehicle: steriod suspending solution 96 % of control | dose: 1000.0 mg/kg/injection, schedule: Q01DX Z (sc), vehicle: steriod suspending solution 92 % of control

CC(C)OC(=O)Nc1ccccc1
inactive: [9] 93 % of control | [6] 102 % of control | [10] 93 % of control | [7] 112 % of control | [11] 110 % of control | [8] 115 % of control

CCSC(SCC)C(N)C(O)C(O)C(O)CO (centres undefined)
inactive: dose: 50.0 mg/kg/injection, schedule: Q04DX002 (ip), vehicle: saline 103 % of control | [12] 103 % of control | [13] 109 % of control

CCCCS(=O)(=O)N1CCCCC1C (centres undefined)
inactive: dose: 25.0 mg/kg/injection, schedule: Q04DX002 (ip), vehicle: saline with Tween-80 96 % of control | dose: 50.0 mg/kg/injection, schedule: Q04DX002 (ip), vehicle: saline with Tween-80 96 % of control | dose: 100.0 mg/kg/injection, schedule: Q04DX002 (ip), vehicle: saline with Tween-80 86 % of control

Cc1ccc(S(=O)(=O)N/N=C/C(C)(C)C(C)C)cc1
inactive: [14] 108 % of control | dose: 200.0 mg/kg/injection, schedule: Q04DX003 (ip), vehicle: saline with Tween-80 97 % of control | dose: 400.0 mg/kg/injection, schedule: Q04DX003 (ip), vehicle: saline with Tween-80 98 % of control

CCCC(N)C(O)c1ccccc1 (centres undefined)
inactive: dose: 75.0 mg/kg/injection, schedule: Q01DX001 (ip), vehicle: saline 102 % of control | dose: 150.0 mg/kg/injection, schedule: Q01DX001 (ip), vehicle: saline 100 % of control

O=C(Nc1ncn[nH]1)C(Cl)(Cl)Cl
inactive: dose: 100.0 mg/kg/injection, schedule: Q04DX003 (ip), vehicle: carboxymethylcellulose (CMC) 95 % of control | dose: 200.0 mg/kg/injection, schedule: Q04DX003 (ip), vehicle: carboxymethylcellulose (CMC) 100 % of control | dose: 400.0 mg/kg/injection, schedule: Q04DX003 (ip), vehicle: carboxymethylcellulose (CMC) 97 % of control

[Co+2].[NH-]C(CC(N)=O)C(=O)O.[NH-]C(CC(N)=O)C(=O)O (centres undefined)
inactive: [12] 108 % of control | [13] 86 % of control

COc1ccc2nc3cc(Cl)ccc3c(NCCCSCCCl)c2n1
inactive: dose: 2.0 mg/kg/injection, schedule: Q01DX009 (ip), vehicle: saline 116 % of control | dose: 8.0 mg/kg/injection, schedule: Q01DX009 (ip), vehicle: saline 109 % of control

CCCC/C=C1\CCCC(C)C1 (centres undefined)
inactive: [12] 101 % of control | [13] 101 % of control | [15] 97 % of control

CN(C)CCC1CCCCN1 (centres undefined)
inactive: [2] 95 % of control | dose: 25.0 mg/kg/injection, schedule: Q04DX003 (ip), vehicle: saline 103 % of control | [3] 95 % of control | dose: 50.0 mg/kg/injection, schedule: Q04DX003 (ip), vehicle: saline 101 % of control | [4] 104 % of control | dose: 100.0 mg/kg/injection, schedule: Q04DX003 (ip), vehicle: saline 99 % of control and 100 % of control

CS/C(N)=N/N=C(\N)SC
inactive: [16] 101 % of control | dose: 25.0 mg/kg/injection, schedule: Q04DX003 (ip), vehicle: saline with Tween-80 91 % of control | [17] 95 % of control | dose: 50.0 mg/kg/injection, schedule: Q04DX003 (ip), vehicle: saline with Tween-80 90 % of control | [5] 102 % of control | [14] 111 % of control

CC(=O)NC/C(C)=N/Nc1ccc([N+](=O)[O-])cc1[N+](=O)[O-]
inactive: [16] 91 % of control | [17] 93 % of control | [1] 102 % of control | [14] 88 % of control

COC(=O)c1ccccc1NC(=O)Nc1cccc(F)c1
inactive: [9] 95 % of control | [10] 101 % of control | [11] 113 % of control

O=S(=O)(O)Cc1ccc(Cl)cc1Cl
inactive: [12] 95 % of control | [13] 103 % of control | [15] 116 % of control
